Source: US20120252773A1, “Method and composition for inhibiting cell proliferation and angiogenesis” (priority 2005, published 2012)

Legend:
[1] = test system: PC-3 human prostate tumors; test: PC-3 xenograft nude mouse model, tumor growth; assay type: in vivo
Procedure: Compound (2) was evaluated using the xenograft nude Balb-C athymic mouse model for its in vivo anti-tumor activity against PC-3 human prostate tumors. The mice were obtained from Taconic Laboratories. The experiment was conducted by subcutaneously implanting PC-3 cells to the right flanks of BALB-C athymic nude mice (Taconic Laboratories) followed by observing tumor growth daily. There were 8 mice in the control and each treatment groups. When tumor volumes reached 70-100 mm^3, drug delivery was initiated at 3 dose levels of (2). The compound was delivered orally as follows: 0 mg/kg to the control group, 10 mg/kg to one treatment group, and 30 mg/kg to a second treatment group, each once daily for 28 days; and 100 mg/kg to a third treatment group, once weekly. Tumor volumes were measured twice weekly and body weights once weekly.
Mice were treated as in Example 7, except that one group received no oral (2), but instead received 7.5 mg/kg i.p. paclitaxel (Sigma) when the tumors reached 70-100 mm^3, while another group received both (2) orally at 10 mg/kg and paclitaxel i.p. at 7.5 mg/kg.

[2] = test system: HIF-1α protein in RAW 264.7 immortalized mouse macrophages; test: HIF-1α protein expression by immunoblotting, RAW 264.7 macrophages; assay type: cell-based; settings: RAW 264.7 macrophages (normal cell line)
Procedure: Hypoxia experiments were performed in either of two ways. To produce a very low ambient oxygen concentration (effectively anoxia), we used a protocol in which cells were incubated in a 5% CO2-air atmosphere at 37° C. overnight and then placed in aluminum gas-exchange chambers maintained at 37° C. (Laderoute K R et al. Mol Cell Biol 22: 2515-2523, (2002); Laderoute K R et al. Mol Cell Biol 24: 4128-4137, (2004)). The chambers containing the cells were then placed in a 37° C. circulating water bath and the original atmosphere was repeatedly exchanged with 5% CO2-95% N2 using a manifold equipped with a vacuum pump and a gas cylinder. Atmospheric oxygen partial pressure (pO2) values of less than or equal to 0.01% (relative to air at pO2 of about 21%) can be achieved inside the chambers using this system. […] Atmospheric oxygen levels in both the chambers and the glove box have been measured and calibrated using a polarographic oxygen electrode (Oxygen Sensors, Inc., Norristown, Pa.). […]
We used immunoblotting to evaluate the experiments. […] After spinning at 9,000×g for 5 min at 4° C., the protein concentrations of the supernatants were determined by using a bicinchoninic acid assay (Pierce Biotechnology). […] Primary antibody binding was detected and visualized by using the ECL Plus Western Blotting Detection System (Amersham Pharmacia Biotech) according to the supplier's instructions. […]

[3] = test system: A549 human non small cell lung cancer tumors; test: A549 NSCLC nude mouse xenograft model, tumor growth; assay type: in vivo; settings: 30 days
Procedure: The xenograft model was conducted using 8 weeks old female athymic nude mice supplied by Charles River Laboratories. After 4 days of quarantine, A549 human non small cell lung cancer cells (3×10^6 cells/mouse) were subcutaneously implanted in the right flanks of mice in a 100 μl of Matrigel/phosphate buffered saline mixture (1:1). Animals were observed daily for tumor growth. When tumors became palpable, we began to measure the tumors using the formula V=W×L×H×π/6, where W and L represent the shorter and longer diameters of the tumor, H the height of the tumor. When tumor volumes reached approximately 50 mm^3, animals were randomized into control and treatment groups of 10 mice each based on tumor volumes. Only the mice with tumor volumes closest to the mean value were used. On the day of randomization, animals began to receive drug treatment. Compound (2) and Tarceva (Erlotinib) were orally dosed via gavage once daily. Cisplatin and Paclitaxel were dosed via intraperitoneal injection once weekly.
After initiation of drug treatment, tumor volumes were measured twice weekly and body weights once weekly. The study was carried out for 30 days and unscheduled sacrifices were performed on animals with tumor volumes greater than 1500 mm^3 or tumors developing ulceration or loss of 20% of their original body weights. […]

C[C@@H]1Cc2cc(O)ccc2C2CCC3(C)/C(=C/COCCN(C)C)CCC3C21 (stereo partly drawn) [Compound (2), (E)-3-Hydroxy-7α-methyl-21-[(2-dimethylamino)ethoxy]-19-norpregna-1,3,5(10),17(20)-tetraene]
tumor growth rate ([1]; 10 mg/kg oral once daily for 28 days): markedly decreased growth rates | reduction of microvascularization compared to control group ([1]; 30 mg/kg oral): about 50% | tumor growth rate ([1]; 30 mg/kg oral once daily for 28 days): markedly decreased growth rates | tumor growth rate ([1]; 100 mg/kg oral once weekly): markedly decreased growth rates | HIF-1α protein expression [2]: did not influence | growth rate of A549 tumors ([3]; 10 mg/kg oral once daily): drastically reduced the growth rate | growth rate of A549 tumors ([3]; 20 mg/kg oral once daily): drastically reduced the growth rate
